Test results taken from patent US10385030B2, “Cationic lipid” (NOF CORPORATION, priority 2015, dated 2019).
Entries after “also recorded” stand apart in the source; their conditions may differ.

Key:
[1] = Particle size and surface potential of MENDs by dynamic light scattering (Experimental Example 6); assay type: physicochemical
Method: Various MENDs were prepared by the ethanol dilution method in [Experimental Example 1] (2), and DOPC was used as a phospholipid. PEG5000-DSG was used as a PEG lipid, and an amount corresponding to 5 mol % of the total lipid was added in Myr-C3M MEND, and an amount corresponding to 10 mol % was added in TS-PZ4C2 MEND.
pDNA solution (1 mg/mL), 100 mM malic acid buffer (pH 4.0), 5 M aqueous sodium chloride solution and sterilized water were mixed, and a solution having a final concentration of 0.1 mg/mL, 20 mM, 40 mM, respectively, was prepared and used as a DNA solution.
A lipid solution in ethanol was prepared by mixing 5 mM cationic lipid (L-PZ4C2, O-PZ4C2), 10 mM cholesterol (Chol), and 10 mM DOPC at desired ratios to achieve 840 nmol total lipid in a 5 mL tube, further adding PEG5000-DSG (1 mM ethanol solution) in an amount corresponding to 5 mol % of the total lipid, and adding ethanol to achieve a total amount of 200 μL (80% ethanol solution) and 20 mM malic acid buffer (pH 4.0). While stirring the lipid solution in a vortex mixer, the above-mentioned DNA solution (200 μL) was quickly added, after which 20 mM malic acid buffer (pH 4.0) (1600 μL) was added, phosphate buffered saline was added, and the mixture was diluted to an ethanol concentration of 8%. Similar operation was repeated three times and phosphate buffered saline was added to an ethanol concentration of 4%. Thereafter, using Amicon Ultra 15 (Millipore), the mixture was concentrated to about 200 μL by ultrafiltration under centrifugation condition (room temperature, 2267 rpm, 30 min). Thereafter, the mixture was diluted with phosphate buffered saline to 15 mL, and concentrated again by centrifugation (2267 rpm, for 30 min) under room temperature conditions. Finally, it was diluted to a desired lipid concentration with phosphate buffered saline.
The particle size and the surface potential were measured by the dynamic light scattering method (Zetasizer Nano).

4T1 tumor = experiment: Gene expression activity (gene delivery into tumor) in vivo (Experimental Example 8); set-up: species or system BALB/c mice; conditions: MEND encapsulating pDNA, tail vein, 25 mg DNA, 48 hr; FIG. 6
Method: Various MENDs were prepared according to the method described in [Experimental Example 6]. Cancer-carrying mice were produced by subcutaneous administration of a suspension of mouse breast cancer-derived cancer cell line 4T1 cells (1×10^6 cells/mouse) to 6-week-old female BALB/c mice. At 7 days after the subcutaneous transplantation of the cancer cells, the prepared MEND solutions were administered each in an amount corresponding to […] from the tail vein. The mice were euthanized by a cervical spine […] method at 48 hr after the administration, the tumor was isolated and frozen with liquid nitrogen. The tumor was lysed in a Lysis buffer to prepare homogenate. The homogenate was centrifuged at 13,000 rpm, 10 min, 4° C., and the supernatant was collected and used as a measurement sample. The sample solution (20 μL) was mixed with a luciferase substrate (50 μL), and the luciferase activity was measured using Luminescenser-PSN (AB2200 ATTO). In addition, the concentration of the protein in the sample was quantified using a BCA protein assay kit, and the gene expression activity was measured as RLU/mg protein.

[2] = Particle size and surface potential of MENDs by dynamic light scattering (Experimental Example 1); assay type: physicochemical
Method: A solution of pDNA encoding luciferase gene and a protamine (manufactured by CALBIOCHEM) solution were diluted with 10 mM HEPES buffer to 0.15 mg/mL and 96.3 μg/mL, respectively. While stirring 0.15 mg/mL pDNA solution (100 μL), 96.3 μg/mL protamine (100 μL) was added dropwise in small portions to prepare an electrostatic complex of protamine and pDNA (N/P ratio=1.0) as a core of the vector.
A lipid solution in ethanol was prepared by mixing 5 mM cationic lipid (Myr-C3M), 5 mM phospholipid (SOPC) and 5 mM cholesterol (Chol) at desired ratios to achieve 330 nmol total lipid in an Eppendorf tube, further adding PEG2000-DSG (1 mM ethanol solution) in an amount corresponding to 3 mol % of the total lipid, and adding ethanol to achieve a total volume of 200 μL. While stirring the lipid solution in a vortex mixer, 200 μL of the nucleic acid electrostatic complex (10 mM HEPES; pH 5.3) prepared in [Experimental Example 1] (1) was quickly added, and thereafter 10 mM HEPES buffer (1.6 mL, adjusted to pH 5.3) was added. Furthermore, 10 mM HEPES buffer (2 mL) adjusted to pH 5.3 was added to dilute the mixture to an ethanol concentration of 5%. The mixture was concentrated to about 50 μL by ultrafiltration using Amicon Ultra 4 (Millipore) under centrifugation conditions (room temperature, 1000 g, 15 min). Thereafter, it was diluted to 4 mL with 100 mM HEPES buffer (adjusted to pH 7.4), and again concentrated by centrifugation (1000 g, 15 min) under room temperature conditions. Thereafter, it was diluted to 4 mL with 10 mM HEPES buffer (pH 7.4), and again concentrated by centrifugation (1000 g, 15 min) under room temperature conditions. Finally, it was diluted with 10 mM HEPES buffer (pH 7.4) to a desired lipid concentration.
pDNA solution (1 mg/mL), 100 mM malic acid buffer (pH 4.0), 5 M aqueous sodium chloride solution and sterilized water were mixed, and a solution having final concentrations of 0.1 mg/mL, 20 mM, 40 mM, respectively, was prepared and used as a DNA solution.
A lipid solution in ethanol was prepared by mixing 5 mM cationic lipid (TS-PZ4C2 or TS-C3M), and 10 mM cholesterol (Chol) at desired ratios to achieve 600 nmol total lipid in a 5 mL tube, further adding PEG2000-DMG (5 mM ethanol solution) in an amount corresponding to 3 mol % of the total lipid, and adding ethanol to achieve a total volume of 200 μL. While stirring the lipid solution in a vortex mixer, the above-mentioned DNA solution (300 μL) was quickly added, after which 20 mM malic acid buffer (pH 4.0, containing 100 mM sodium chloride) (500 μL) was added, and phosphate buffered saline was added to dilute the mixture to the ethanol concentration of 10%. Similar operation was repeated three times and phosphate buffered saline was added to an ethanol concentration of 5%. Thereafter, the mixture was concentrated to about 200 μL by ultrafiltration using Amicon Ultra 15 (Millipore, under centrifugation conditions (room temperature, 2267 rpm, 20 min). Thereafter, it was diluted to 15 ml with phosphate buffered saline, and again concentrated by centrifugation (2267 rpm, 20 min) under conditions of room temperature. Finally, it was diluted with phosphate buffered saline to a desired lipid concentration.
The particle size and the surface potential were measured by the dynamic light scattering method (Zetasizer Nano; Malvern Instruments Ltd.).

[3] = compared to DOTAP, DODAP; known from patent document 1; cited from earlier work
[4] = MEND of L-PZ4C2, cationic lipid:DOPC:Chol = 6:1:3, PEG5000-DSG 5 mol %
[5] = MEND of Myr-C3M, cationic lipid:DOPC:Chol = 3:4:3, PEG5000-DSG 5 mol %
[6] = MEND of Myr-C3M, cationic lipid:SOPC:Chol = 3:4:3, PEG2000-DSG 3 mol %
[7] = MEND of O-PZ4C2, cationic lipid:DOPC:Chol = 6:1:3, PEG5000-DSG 5 mol %
[8] = MEND of TS-C3M, cationic lipid:Chol = 7:3, PEG2000-DMG 3 mol %
[9] = MEND of TS-PZ4C2, cationic lipid:Chol = 7:3, PEG5000-DSG 10 mol %
[10] = MEND of TS-PZ4C2, cationic lipid:Chol = 7:3, PEG2000-DMG 3 mol %

Compound: CCCCC/C=C\C/C=C\CCCCCCCC(=O)OCCN1CCN(CCSSCCN2CCN(CCOC(=O)CCCCCCC/C=C\C/C=C\CCCCC)CC2)CC1 [L-PZ4C2]
- PdI [1, 4]: 0.094
- particle size [1, 4]: 108.7 nm
- zeta potential [1, 4]: 0.144 mV
- gene delivery expression activity to tumor (luciferase activity, RLU/mg protein) (4T1 tumor): higher gene delivery expression activity to tumor than the lipid membrane structures using the cationic lipids of Comparative Example 1

Compound: CCCCCCCCCCCCCC(=O)OCCCN(C)CCSSCCN(C)CCCOC(=O)CCCCCCCCCCCCC [Myr-C3M]
- PdI [1, 5]: 0.134
- particle size [1, 5]: 113.9 nm
- zeta potential [1, 5]: −0.135 mV
- PdI [2, 6]: 0.188
- particle size [2, 6]: 128.3 nm
- zeta potential [2, 6]: 1.88 mV
- nucleic acid delivery efficiency [3]: high nucleic acid delivery efficiency as compared to cationic lipids such as DOTAP, DODAP; also recorded: higher nucleic acid delivery efficiency as compared to conventional cationic lipids such as DOTAP, DODAP

Compound: CCCCCCCC/C=C\CCCCCCCC(=O)OCCN1CCN(CCSSCCN2CCN(CCOC(=O)CCCCCCC/C=C\CCCCCCCC)CC2)CC1 [O-PZ4C2]
- PdI [1, 7]: 0.083
- particle size [1, 7]: 115.2 nm
- zeta potential [1, 7]: −0.294 mV
- gene delivery expression activity to tumor (luciferase activity, RLU/mg protein) (4T1 tumor): higher gene delivery expression activity to tumor than the lipid membrane structures using the cationic lipids of Comparative Example 1

Compound: Cc1c(C)c2c(c(C)c1OC(=O)CCC(=O)OCCCN(C)CCSSCCN(C)CCCOC(=O)CCC(=O)Oc1c(C)c(C)c3c(c1C)CCC(C)(CCCC(C)CCCC(C)CCCC(C)C)O3)CCC(C)(CCCC(C)CCCC(C)CCCC(C)C)O2 (stereo not shown) [TS-C3M]
- PdI [2, 8]: 0.08
- particle size [2, 8]: 141.3 nm
- zeta potential [2, 8]: −5.4 mV
- nucleic acid delivery efficiency [3]: high nucleic acid delivery efficiency as compared to cationic lipids such as DOTAP, DODAP

Compound: Cc1c(C)c2c(c(C)c1OC(=O)CCC(=O)OCCN1CCN(CCSSCCN3CCN(CCOC(=O)CCC(=O)Oc4c(C)c(C)c5c(c4C)CCC(C)(CCCC(C)CCCC(C)CCCC(C)C)O5)CC3)CC1)CCC(C)(CCCC(C)CCCC(C)CCCC(C)C)O2 (stereo not shown) [TS-PZ4C2]
- PdI [1, 9]: 0.121
- particle size [1, 9]: 104.8 nm
- zeta potential [1, 9]: −0.897 mV
- PdI [2, 10]: 0.041
- particle size [2, 10]: 126.8 nm
- zeta potential [2, 10]: −7.38 mV
